One test has as its target KDR (Homo sapiens (Human), UniProt P35968). As to the kind of experiment: KDR autophosphorylation ELISA in HUVEC cells. Type of test: cell-based. Particulars: cellular, VEGF165 stimulated. An outline of the steps: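 HUVEC, 24 h serum-free starvation; cpd 8-pt dilution, 0.3% DMSO final, 1 h; VEGF165 100 ng/mL, 5 min; cold lysis; phospho-KDR ELISA; IC50, 4PL.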
Background: An ELISA detects its analyte on a solid surface through an enzyme-linked reagent.

Test [1] concerns the target Human Met (residues R974-S1390 with A1209G and V1290L) (Homo sapiens, UniProt P08581). As to the kind of experiment: Human Met kinase assay (33P radiometric, KinaseProfiler). Type of test: biochemical. To be noted: 10 μM ATP, read-out: c-Met IC50.

In general, IC50 refers to the concentration that gives 50% inhibition.

Sequence of KDR (P35968 20-1356): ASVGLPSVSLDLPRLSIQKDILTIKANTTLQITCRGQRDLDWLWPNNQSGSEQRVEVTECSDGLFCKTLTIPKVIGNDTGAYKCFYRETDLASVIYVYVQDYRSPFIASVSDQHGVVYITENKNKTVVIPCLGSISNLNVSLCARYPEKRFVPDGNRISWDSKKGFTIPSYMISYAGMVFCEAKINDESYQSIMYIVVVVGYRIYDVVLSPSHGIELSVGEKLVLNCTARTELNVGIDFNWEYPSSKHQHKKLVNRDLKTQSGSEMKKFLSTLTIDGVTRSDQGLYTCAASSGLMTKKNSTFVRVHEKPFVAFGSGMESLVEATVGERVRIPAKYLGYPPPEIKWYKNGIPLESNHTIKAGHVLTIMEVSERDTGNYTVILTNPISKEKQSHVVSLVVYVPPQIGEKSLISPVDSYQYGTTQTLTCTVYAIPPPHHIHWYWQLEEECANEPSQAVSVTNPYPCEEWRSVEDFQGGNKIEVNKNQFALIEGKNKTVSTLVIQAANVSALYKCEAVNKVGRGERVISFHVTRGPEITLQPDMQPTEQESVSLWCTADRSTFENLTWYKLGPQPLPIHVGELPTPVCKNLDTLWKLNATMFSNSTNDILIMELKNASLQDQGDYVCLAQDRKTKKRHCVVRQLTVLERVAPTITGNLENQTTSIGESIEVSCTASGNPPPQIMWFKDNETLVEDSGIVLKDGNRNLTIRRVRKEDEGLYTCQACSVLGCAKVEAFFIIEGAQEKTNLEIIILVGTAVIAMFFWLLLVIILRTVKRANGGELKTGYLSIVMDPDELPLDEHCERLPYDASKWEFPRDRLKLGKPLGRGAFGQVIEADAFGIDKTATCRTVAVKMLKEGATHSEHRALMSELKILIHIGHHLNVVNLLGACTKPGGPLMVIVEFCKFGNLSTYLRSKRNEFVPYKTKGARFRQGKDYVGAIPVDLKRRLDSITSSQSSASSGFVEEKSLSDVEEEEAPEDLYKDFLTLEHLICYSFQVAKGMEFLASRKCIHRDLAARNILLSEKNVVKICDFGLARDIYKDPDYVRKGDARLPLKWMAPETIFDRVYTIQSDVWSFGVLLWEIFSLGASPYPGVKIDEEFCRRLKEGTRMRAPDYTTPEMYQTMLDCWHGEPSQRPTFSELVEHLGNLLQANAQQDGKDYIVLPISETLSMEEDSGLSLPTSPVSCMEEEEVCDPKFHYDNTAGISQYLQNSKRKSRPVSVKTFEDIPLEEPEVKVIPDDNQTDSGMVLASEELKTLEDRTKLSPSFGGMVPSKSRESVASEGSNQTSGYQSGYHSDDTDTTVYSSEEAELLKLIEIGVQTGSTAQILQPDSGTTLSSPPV

With `CNC(=O)c1cc2nccc(Oc3ccc(NC(=O)C4(C(=O)Nc5ccc(F)cc5)CC4)cc3)c2cc1OC` [Compound 153, 1-N′-(4-fluorophenyl)-1-N-[4-[6-methoxy-7-(methylcarbamoyl)quinolin-4-yl]oxyphenyl]cyclopropane-1,1-dicarboxamide], the half-maximal inhibitory concentration (IC50) (on KDR; in test [1]) was 0.01 to 0.1 µM throughout.

Regarding `COC(=O)c1ccc2c(Oc3ccc(NC(=O)C4(C(=O)Nc5ccc(F)cc5)CC4)cc3)ccnc2c1` [Compound 162, methyl 4-[4-[[1-[(4-fluorophenyl)carbamoyl]cyclopropanecarbonyl]amino]phenoxy]quinoline-7-carboxylate], the IC50 (at KDR; in test [1]) was 0.01 to 0.1 µM throughout.

On to `COc1cc2nccc(Oc3ccc(NC(=O)C4(C(=O)Nc5ccc(F)cc5)CC4)cc3)c2cc1-c1cccc(C#N)c1F` [Compound 175, 1-N-[4-[6-(3-cyano-2-fluorophenyl)-7-methoxyquinolin-4-yl]oxyphenyl]-1-N′-(4-fluorophenyl)cyclopropane-1,1-dicarboxamide], for which the half-maximal inhibitory concentration (IC50) was 0.1 to 0.3 µM against KDR and 0.01 to 0.1 µM in test [1].

For the compound `COc1cc2nccc(Oc3ccc(NC(=O)C4(C(=O)Nc5ccc(F)cc5)CC4)cc3)c2cc1-c1ccccn1` [Compound 176, 1-N′-(4-fluorophenyl)-1-N-[4-(7-methoxy-6-pyridin-2-ylquinolin-4-yl)oxyphenyl]cyclopropane-1,1-dicarboxamide], the IC50 (against KDR; in test [1]) was 0.01 to 0.1 µM throughout.

Turning to `COc1cc2nccc(Oc3ccc(NC(=O)C4(C(=O)Nc5ccc(F)cc5)CC4)cc3)c2cc1-c1ccc(C)o1` [Compound 180, 1-N′-(4-fluorophenyl)-1-N-[4-[7-methoxy-6-(5-methylfuran-2-yl)quinolin-4-yl]oxyphenyl]cyclopropane-1,1-dicarboxamide], the half-inhibitory concentration (IC50) (at KDR; in test [1]) was 0.01 to 0.1 µM each time.

`COc1cc2nccc(Oc3ccc(NC(=O)C4(C(=O)Nc5ccc(F)cc5)CC4)cc3)c2cc1-c1cnoc1` [Compound 183, 1-N′-(4-fluorophenyl)-1-N-[4-[7-methoxy-6-(1,2-oxazol-4-yl)quinolin-4-yl]oxyphenyl]cyclopropane-1,1-dicarboxamide]: the IC50 at KDR is 0.01 to 0.1 µM; in test [1], not above 0.01 µM.

Consider `COc1cc2nccc(Oc3ccc(NC(=O)C4(C(=O)Nc5ccc(F)cc5)CC4)cc3)c2cc1-c1c(C)noc1C` [Compound 184, 1-N-[4-[6-(3,5-dimethyl-1,2-oxazol-4-yl)-7-methoxyquinolin-4-yl]oxyphenyl]-1-N′-(4-fluorophenyl)cyclopropane-1,1-dicarboxamide], for which the IC50 against KDR was more than 0.3 µM; in test [1] it was 0.01 to 0.1 µM.

For `COc1cc2nccc(Oc3ccc(NC(=O)C4(C(=O)Nc5ccc(F)cc5)CC4)cc3)c2cc1-c1cn[nH]c1` [Compound 186, 1-N′-(4-fluorophenyl)-1-N-[4-[7-methoxy-6-(1H-pyrazol-4-yl)quinolin-4-yl]oxyphenyl]cyclopropane-1,1-dicarboxamide], the half-maximal inhibitory concentration (IC50) (against KDR; in test [1]) was not above 0.01 µM each time.

Take `COc1cc2nccc(Oc3ccc(NC(=O)C4(C(=O)Nc5ccc(F)cc5)CC4)cc3)c2cc1C1CC1` [Compound 187, 1-N-[4-(6-cyclopropyl-7-methoxyquinolin-4-yl)oxyphenyl]-1-N′-(4-fluorophenyl)cyclopropane-1,1-dicarboxamide]: the IC50 (against KDR; in test [1]) was 0.01 to 0.1 µM in each case.

As for `COc1cc2nccc(Oc3ccc(NC(=O)C4(C(=O)Nc5ccc(F)cc5)CC4)cc3)c2cc1-c1ccc[nH]1` [Compound 188, 1-N′-(4-fluorophenyl)-1-N-[4-[7-methoxy-6-(1H-pyrrol-2-yl)quinolin-4-yl]oxyphenyl]cyclopropane-1,1-dicarboxamide], the 50% inhibitory concentration (IC50) against KDR is 0.01 to 0.1 µM; in test [1], not above 0.01 µM.

For the compound `COc1cc2nccc(Oc3ccc(NC(=O)C4(C(=O)Nc5ccc(F)cc5)CC4)cc3)c2cc1C1(O)CN(C(=O)OC(C)(C)C)C1` [Compound 195, tert-butyl 3-[4-[4-[[1-[(4-fluorophenyl)carbamoyl]cyclopropanecarbonyl]amino]phenoxy]-7-methoxyquinolin-6-yl]-3-hydroxyazetidine-1-carboxylate], the IC50 (on KDR; in test [1]) was 0.01 to 0.1 µM each time.

Take `COc1cc2nccc(Oc3ccc(NC(=O)C4(C(=O)Nc5ccc(F)cc5)CC4)cc3)c2cc1C1(O)COC1` [Compound 196, 1-N′-(4-fluorophenyl)-1-N-[4-[6-(3-hydroxyoxetan-3-yl)-7-methoxyquinolin-4-yl]oxyphenyl]cyclopropane-1,1-dicarboxamide]: the concentration for half-maximal inhibition (IC50) against KDR was 0.01 to 0.1 µM; in test [1] it was not above 0.01 µM.

With `COc1cc2nccc(Oc3ccc(NC(=O)C4(C(=O)Nc5ccc(F)cc5)CC4)cc3)c2cc1C1(O)CNC1` [Compound 197, 1-N′-(4-fluorophenyl)-1-N-[4-[6-(3-hydroxyazetidin-3-yl)-7-methoxyquinolin-4-yl]oxyphenyl]cyclopropane-1,1-dicarboxamide], the IC50 on KDR was more than 0.3 µM; in test [1] it was not above 0.01 µM.

For the compound `COc1cc2nccc(Oc3ccc(NC(=O)C4(C(=O)Nc5ccc(F)cc5)CC4)cc3)c2cc1N1CCC1` [Compound 198, 1-N-[4-[6-(azetidin-1-yl)-7-methoxyquinolin-4-yl]oxyphenyl]-1-N′-(4-fluorophenyl)cyclopropane-1,1-dicarboxamide], the half-maximal inhibitory concentration (IC50) (against KDR; in test [1]) was 0.01 to 0.1 µM in each case.

`COc1cc2nccc(Oc3ccc(NC(=O)C4(C(=O)Nc5ccc(F)cc5)CC4)cc3)c2cc1N1CC(O)C1` [Compound 199, 1-N′-(4-fluorophenyl)-1-N-[4-[6-(3-hydroxyazetidin-1-yl)-7-methoxyquinolin-4-yl]oxyphenyl]cyclopropane-1,1-dicarboxamide]: the 50% inhibitory concentration (IC50) (against KDR; in test [1]) was not above 0.01 µM each time.

For `COc1cc2nccc(Oc3ccc(NC(=O)C4(C(=O)Nc5ccc(F)cc5)CC4)cc3)c2cc1N1CC(F)(F)C1` [Compound 200, 1-N-[4-[6-(3,3-difluoroazetidin-1-yl)-7-methoxyquinolin-4-yl]oxyphenyl]-1-N′-(4-fluorophenyl)cyclopropane-1,1-dicarboxamide], the concentration for half-maximal inhibition (IC50) (against KDR; in test [1]) was 0.01 to 0.1 µM throughout.

Consider `COc1cc2nccc(Oc3ccc(NC(=O)C4(C(=O)Nc5ccc(F)cc5)CC4)cc3)c2cc1-c1cccnc1` [Compound 201, 1-N′-(4-Fluorophenyl)-1-N-[4-(7-methoxy-6-pyridin-3-ylquinolin-4-yl)oxyphenyl]cyclopropane-1,1-dicarboxamide], for which the results for the 50% inhibitory concentration (IC50) (on KDR; in test [1]) were 0.01 to 0.1 µM and not above 0.01 µM, respectively.

For the compound `COc1cc2nccc(Oc3ccc(NC(=O)C4(C(=O)Nc5ccc(F)cc5)CC4)cc3)c2cc1-c1ccncc1` [Compound 202, 1-N′-(4-Fluorophenyl)-1-N-[4-(7-methoxy-6-pyridin-4-ylquinolin-4-yl)oxyphenyl]cyclopropane-1,1-dicarboxamide], the 50% inhibitory concentration (IC50) at KDR was 0.01 to 0.1 µM; in test [1], not above 0.01 µM.

In the case of `COc1cc2nccc(Oc3ccc(NC(=O)C4(C(=O)Nc5ccc(F)cc5)CC4)cc3)c2cc1S(C)(=O)=O` [Compound 210, 1-N′-(4-Fluorophenyl)-1-N-[4-(7-methoxy-6-methylsulfonylquinolin-4-yl)oxyphenyl]cyclopropane-1,1-dicarboxamide], the 50% inhibitory concentration (IC50) (on KDR; in test [1]) was not above 0.01 µM in each case.

(Values after patent US11542259B2, “Compounds for the treatment of kinase-dependent disorders” (Exelixis, Inc., priority 2018, dated 2023).)
